The test system of one data set is Canidae. The settings on record: oral, Dog Other.
Data set [1] has as its system Rattus norvegicus. The following applies: for LOEL / NOEL: Hershberger; for LEL: uterotrophic, Active.
Data set [2] has as its system Rattus norvegicus. The settings on record: oral; for NOEL: gavage, M/F.
The test system of data set [3] is Rattus norvegicus. The settings on record: chronic, duration: 2 years, oral, diet, M/F.
The test system of data set [4] is Rattus norvegicus. The following applies: oral; for NOEL: subchronic, diet.
The mark [5] stands for this setting: chronic, duration: 2 years, diet, M/F, liver toxicity.
Setting [6] is: chronic, duration: 1 years, diet, M/F, tremors.
Where [7] appears, read: chronic, duration: 1 years, diet, M/F, hypertrophy of adrenal cortex (both sexes) hematological effects (males).
Where [8] appears, read: chronic, duration: 26 weeks, diet, M/F, increased organ weight.
Setting [9] is: subchronic, M, increased sgot and sgpt levels.
[10] abbreviates: duration: 10 days, oral, gavage, Sprague-Dawley, inactive + Negative + Negative + neither + negative.
The mark [11] stands for this setting: chronic, duration: 2 years, diet, M/F, liver and kidney effects, reduced body weight, mortality.
The mark [12] stands for this setting: chronic, duration: 1 years, diet, M/F, chronic pneumonitis.
[13] abbreviates: chronic, duration: 106 weeks, diet, M/F, liver and kidney degeneration and bone marrow atrophy.
Setting [14] is: reduced body weight gain, erythrocyte count and hemoglobin level.
The mark [15] stands for this setting: chronic, duration: 6 months, diet, M/F, Organ weight changes (adrenal and kidney).

Data on 18 compounds can be found in EPA's ToxValDB 9.5.

The structures appear in SMILES notation. Where “and” joins values, the source holds several entries; their conditions need not be identical. Equal entries are not always repeated.

In the data set on Canidae (setting [5]), `CN(C)C(=O)C(c1ccccc1)c1ccccc1` [Diphenamid] displayed an LEL of 10 mg/kg-day and an NOEL of 3 mg/kg-day.

Regarding `CC1(C)C(C(=O)OC(C#N)c2cccc(Oc3ccccc3)c2)C1(C)C` (stereo not given) [Fenpropathrin], in the data set with Canidae (setting [6]), the LOAEL was 6.25 mg/kg-day and the NOAEL was determined as 2.5 mg/kg-day.

Consider `COP(=S)(OC)Oc1ccc(SC)c(C)c1` [Fenthion], for which, in the data set with Rattus norvegicus [1] (duration: 7 days, oral, gavage, Fischer 344, active + Antiandrogenic + anti-androgenic), the LOEL was 25 mg/kg-day.

In the data set on Canidae (setting [7]), `C[C@H]1[C@H](c2ccc(Cl)cc2)SC(=O)N1C(=O)NC1CCCCC1` [Hexythiazox] had an LEL of 12.5 mg/kg-day and an NOEL of 2.5 mg/kg-day.

In the data set on Canidae (setting [8]), `CC1(C)CN=C(NN=C(C=Cc2ccc(C(F)(F)F)cc2)C=Cc2ccc(C(F)(F)F)cc2)NC1` [Hydramethylnon] displayed an LEL of 1 mg/kg-day and an NOEL of 0.33 mg/kg-day.

In the data set with Canidae (setting [9]), `C=C(C)C#N` [Methacrylonitrile] displayed an LOAEL of 24 mg/m3 and an NOAEL of 9 mg/m3. Besides, the NOEL in the data set on Rattus norvegicus [2] (subchronic, Fischer 344, Deaths + Clinical Observation: Lethargy Lacrimation, tremors Convulsions Ataxia Abnormalbreathing + Body Weight Changes: decrease + …) was less than 7.5 mg/kg-day.

For `CSc1nnc(C(C)(C)C)c(=O)n1N` [Metribuzin], the NOEL in the data set with Rattus norvegicus [1] (setting [10]) amounted to 120 mg/kg-day; in the data set on Canidae (setting [11]), 2.5 mg/kg-day. The compound further yielded an LEL in the data set with Canidae (setting [11]) of 37.5 mg/kg-day.

Take `CCCCC(C#N)(Cn1cncn1)c1ccc(Cl)cc1` (stereo not given) [Myclobutanil]: the NOEL was determined as 50 mg/kg-day with Rattus norvegicus [1] (duration: 10 days, oral, gavage, Sprague-Dawley, inactive + Negative + Negative + anti-androgenic + decrease in AST wt at 200 and serum testosterone 49% / increase in PPS at 400 and serum …); 2.49 mg/kg-day with Rattus norvegicus [3] (testicular atrophy). The compound also registered an LEL in the data set with Rattus norvegicus [3] (testicular atrophy) of 9.84 mg/kg-day.

Regarding `C[n+]1ccc(-c2cc[n+](C)cc2)cc1` [Paraquat], in the data set with Canidae (setting [12]), the LEL amounted to 0.93 mg/kg-day and the NOEL is 0.45 mg/kg-day.

On to `CCCCN(CC)C(=O)SCCC` [Pebulate], for which the NOEL in the data set on Rattus norvegicus [4] (Blood: Increased clotting time) is 5 mg/kg-day.

Turning to `Brc1cc(-c2ccc(Br)c(Br)c2Br)cc(Br)c1Br` [Polybrominated biphenyls (PBB)], in the data set with Rattus norvegicus [4] (chronic, duration: 25 weeks, gavage, Liver: Increased weight + Liver: Lesions), the LOAEL is 0.07 mg/kg-day.

In the case of `CCCN(CC1CC1)c1c([N+](=O)[O-])cc(C(F)(F)F)cc1[N+](=O)[O-]` [Profluralin], the NOEL in the data set on Rattus norvegicus [4] (None Observed) is 3 mg/kg-day.

In the data set with Canidae (setting [13]), `CSc1nc(NC(C)C)nc(NC(C)C)n1` [Prometryn] displayed an LEL of 37.5 mg/kg-day and an NOEL of 3.75 mg/kg-day.

For the compound `CCCOC(=O)c1ccc(O)cc1` [Propylparaben], the LEL with Rattus norvegicus [1] (duration: 3 days, injection, subcutaneous) amounted to 65 mg/kg-day.

Take `CC(C)(C)C(=O)C(Oc1ccc(Cl)cc1)n1cncn1` (stereo not given) [Triadimefon]: the NOEL with Rattus norvegicus [1] (duration: 10 days, oral, gavage, Sprague-Dawley, inactive + Negative + Negative + both + decreased AGD, delayed PPS, decreased AST wt / inhibits CYP17 / increases liver wt 37% and …) was 25 mg/kg-day. Further, in the data set on Rattus norvegicus [3] (setting [14]), the LEL was determined as 25 mg/kg-day and the NOEL is 2.5 mg/kg-day.

`CCC[CH2][Sn]([Cl])([CH2]CCC)[CH2]CCC` [Tributyltin chloride] registered an LEL with Rattus norvegicus [1] (duration: 0 days, oral, diet) of 125 ppm. The NOAEL in the data set with Rattus norvegicus [2] (short-term, duration: 28 days, diet, M, Wistar, Body Weight Changes: Weight gain decrease + Food Consumption: decrease + Absolute Organ Weight: Thymus decrease + Relative Organ Weight: …) came to 5 ppm.

`C=CC1(C)OC(=O)N(c2cc(Cl)cc(Cl)c2)C1=O` (stereo not given) [Vinclozolin]: the NOEL with Rattus norvegicus [1] (duration: 7 days, injection, subcutaneous, Wistar, Neither + significant delay in PPS and AST / epididymal wt reduced at 30 mg/kg / serum LH decreased at 10 mg/kg / increase in …) was 30 mg/kg-day; in the data set on Rattus norvegicus [1] (duration: 10 days, oral, gavage, Wistar, active + Antiandrogenic + anti-androgenic + ISR significant delay in PPS at 10 mg/kg / Monossori et al. significant delay in PPS and AST…), 30 mg/kg-day and 10 mg/kg-day; with Canidae (setting [15]), 2.5 mg/kg-day; in the data set on Rattus norvegicus [2] (subchronic, Sprague-Dawley, Body Weight Changes: decrease + Blood Chemistry: BUN increase, Cho increase, Glu increase, TSH increase, T4 decrease, , LH increase, , …), less than 3.12 mg/kg-day. The LOEL with Rattus norvegicus [1] (duration: 10 days, oral, gavage, wistar, active + Antiandrogenic + anti-androgenic + ISR significant delay in PPS at 10 mg/kg / Monossori et al. significant delay in PPS and AST…) was 10 mg/kg-day and 30 mg/kg-day. Besides, in the data set on Canidae (setting [15]), the LEL is 7.5 mg/kg-day.

With `COP(=O)(OC)O/C(=C\Cl)c1cc(Cl)c(Cl)cc1Cl` [Z-Tetrachlorvinphos], the NOEL in the data set on Rattus norvegicus [1] (setting [10]) was 350 mg/kg-day; in the data set on Rattus norvegicus [2] (short-term, duration: 28 days, Wistar, Deaths + Clinical Observation: Soiled perineal region + Body Weight Changes: decrease + Blood Chemistry: AST decrease, gamma-GTP increase, …), less than 10 mg/kg-day; in the data set on Rattus norvegicus [2] (short-term, duration: 28 days, Wistar, Deaths + Clinical Observation: Soiled perineal region + Body Weight Changes: decrease + Hematology: RBC decrease, HGB decrease, HCT decrease…) it was less than 10 mg/kg-day.
